Experimental data published in patent US8785728B2, “AAD-12 event 1606 and related transgenic soybean lines” (priority 2010, dated 2014).

Experiments:
[1] = system: soybean event pDAB4472-1606; type: in vivo, Glycine max; conditions: 2,4-D dimethylamine salt 2240 g ae/ha applied at V3 and R2; adjusted mean
Text: The agronomic characteristics of soybean event pDAB4472-1606 were compared to an isogenic non-transformed soybean line across diverse geographical locations during the 2009 growing season. Data were collected and analyzed for the following agronomic characteristics: • 1.) Stand count: The number of plants in a representative one meter section of each row was counted. Taking data at the VC-V2 growth stage; • 2.) Emergence: Calculated by dividing Stand count (above) by number of seeds planted in a one meter section; • 3.) Seedling Vigor at V1-V3: Vigor is an overall estimate of the health of the plant. […] Recorded in the number of days from planting date; • 8.) Stand count at R2: The number of plants in a representative one meter section of row were counted. Note taken at the R2 growth stage; • 9.) Overall visual crop injury, chlorosis and necrosis at 1 day after R2 chemical application; • 10.) Overall visual crop injury, chlorosis and necrosis at 7 days after R2 chemical application; • 11.) Overall visual crop injury, chlorosis and necrosis at 14 days after R2 chemical application. • 12.) Disease incidence (if any) at R6 growth stage: Recorded the percentage of plants affected by the disease. 0-100% scale; • 13.) Insect damage (if any) at R6 growth stage: Recorded the percentage of plant tissue in the plot damaged by insects. 0-100% scale; • 14.) Plant height at senescence: Recorded the average height of the plants in each plot. Measured plants from the soil surface to the tip after leaves had fallen. Recorded measurement in centimeters; • 15.) Days to maturity. Recorded when 95% of the pods in a plot had reached their dry down color and were at ˜15% moisture or less. Recorded in days from planting; • 16.) Lodging: Recorded lodging at harvest time. […] (All plants in a plot standing straight=1 and all plants in the plot flat=5); • 17.) Shattering: Recorded shattering at harvest time. Recorded as an estimate of number of pods shattered. […] Recorded seed weight and moisture. […]

[2] = system: soybean event pDAB4472-1606; assay: Field expression level study with 2X spray rate of 2,4-D; type: in vivo, Glycine max; conditions: 2X spray rate (2,240 gm ae/ha of 2,4-D); at any point of the study
Experimental: Field expression level studies at various plant stages were performed on soybean event pDAB4472-1606 at pre V3, post V3, pre R2, and post R2. Expression values were similar for all the sprayed treatments as well as for the plots sprayed and unsprayed with 2,4-D herbicide. […] Average expression across all lineages in pre V3 plant stage was 200 ug/cm^2. After spraying 2,4-D the expression remained stable averaging […] across lineages. By the time the soybeans reached pre R2 the average expression had dropped slightly to an average of 250 ug/cm^2. After spraying 2,4-D the expression post R2 had remained at the previous average of 250 ug/cm^2.

How did the “Overall crop injury 1 day after V3 spray” value [1] turn out when `O=C(O)COc1ccc(Cl)cc1Cl` [2,4-D, 2,4-dichlorophenoxyacetic acid] was run?
The value was 0.3%.

What about the “Overall crop injury 7 days after V3 spray” value [1] of the same compound?
Its value is 2.1%.

What about the “Overall crop injury 14 days after V3 spray” value [1] of the same compound?
Its value is 3.3%.

And the “Injury on the plants” value [2]?
The value was “no significant injury was observed”.
